Laboratory results from article PMC8667898, “Topo II inhibition and DNA intercalation by new phthalazine-based derivatives as potent anticancer agents: design, synthesis, anti-proliferative, docking, and in vivo studies” (Journal of Enzyme Inhibition and Medicinal Chemistry, 2021).
Values joined by “and” are separate entries in the source; they are usually repeats but may differ in a detail not shown here. Equal values may be shown once.

Tests used:
[1] = test system: HepG-2 cells (hepatocellular carcinoma); test: MTT anti-proliferative assay, HepG-2; type: cell-based, human
Procedure: Anti-proliferative activities of the target compounds were assessed via the standard MTT method[38–40] against three cancer cell lines, namely, hepatocellular carcinoma (HepG-2), colorectal carcinoma (HCT-116), and human breast adenocarcinoma (MCF-7).
Anti-proliferative activity of the synthesised compounds was estimated using the MTT assay protocol[8]^,[38–40] as shown in Supplementary data.
4.2.1. In vitro anti-proliferative activity against MCF-7, HepG-2 and HCT-116 The cells were cultured in RPMI-1640 medium supplemented with 10% fetal bovine serum (FBS), penicillin (100 unit /mL) and streptomycin sulphate (100µg/mL) at 37 °C in a 5% CO2 incubator.
Then, cells were dropped in 96-well plates at a density of 3-8 × 10^3 cells/well and incubated for two days in a 5% CO2 incubator at 37 °C. Then, the cells were treated with the synthesized compounds and the cell cultures were continued incubated for 24 h. However, Different concentrations of the compound under test (0.0, 5.0, 12.5, 25.0 and 50 mg/ml) were added to the cell monolayer. Then, (3-[4,5-dimethylthiazol-2-yl]- 2,5-diphenyltetrazolium bromide) MTT solution (20 µl, 5mg/mL) was added to each well and incubated for additional 4 h. The formed purple crystals of MTT-formazan were dissolved in 100 µl DMSO each well; the absorbance of each well was measured at 570 nm using a plate reader (EXL 800, USA). All of the compounds were tested three times. The relative cell viability in percentage was calculated.
The data represented the mean of three independent experiments in triplicate and were expressed as means ± SD. […]

[2] = Hematological and biochemical blood assays in SEC-bearing mice; type: in vivo, Swiss albino mice; conditions: 5 mg/kg BW, Mean ± SEM (n = 7), 5 mg/kg
Procedure: At the end of the experiment, animals from different groups were sacrificed, and blood samples were collected for hematological parameters, including Hb, RBC’s, and WBC’s levels, and serum for determination of liver enzymes ALT, AST levels, and proteins.
(§1) The experimental animals were randomly divided into four groups. Group 1 served as the normal saline control (5 ml/kg B.Wt., I.P.). Group 2 served as the SEC control (1 × 10^6 cells/mouse). Group 3 served as the compound-treated group (5 mg/kg B.Wt., I.P.). […] Bodyweight and survival were recorded daily until the 24th day in both treated and control groups. At the end of the experiment, the blood of each group was collected under light anaesthesia to the estimate of hematological and biochemical assays. The anaesthetised animals were then sacrificed for evaluation of the antitumor activity and histopathological examination.
At the end of the experiment, animals from different groups were sacrificed, and blood samples were collected for hematological parameters including, Hb, RBC’s, and WBC’s levels, and serum for determination of liver enzymes ALT, AST levels, and proteins. Complete blood count (CBC) was investigated using the Abbott CELL-DYN®1800 automated haematology analyser (USA) using ready-made kits (Abbott Laboratories, Abbott Park, IL, USA). Activities of aspartate aminotransferase (AST) and alanine aminotransferase (ALT) were evaluated using commercial kits (ELITech clinical systems, France). Serum albumin level was determined by kit purchased from STANBIO Company (USA). Protein content was determined by colorimetric method using ready-made kits produced by Instrumentation Laboratory SpA, Inova diagnostics, Milano, Italy.

[3] = Histopathological examination of liver tissues of SEC-bearing mice; type: in vivo, Swiss albino mice; conditions: H&E stain, ×200
Procedure: as §1
Specimens of liver-sacrificed mice were fixed in 10% saline formalin. The fixed liver specimens were dehydrated in ascending series of ethyl alcohol and embedded in paraffin. Sections at […] thicknesses were stained with haematoxylin and eosin and examined under the light microscope.

[4] = test system: Solid Ehrlich Carcinoma (SEC); test: In vivo antitumor activity against Solid Ehrlich Carcinoma; design: species or system Swiss albino mice; conditions: SEC-bearing mice, 5 mg/kg BW I.P.
Procedure: To examine the in vivo anticancer activity of compound 9d, adult female Swiss albino mice (30 mice) inoculated with I.P. injection of Solid Ehrlich Carcinoma (SEC) tumour cell lines in a volume of 0.2 ml physiological saline contains 1 × 10^6 viable cells for 24 h.
These mice were randomly divided into four groups (7 mice/group). […] Bodyweight and survival were recorded daily until the 24th day in both treated and control groups. At the end of the experiment, the blood of each group was collected under light anaesthesia for the estimation of hematological and biochemical assays. The anaesthetised animals were then sacrificed to evaluate of the antitumor activity and to conduct hematological, biochemical, and histopathological assays, Figure 3.
Adult female Swiss albino mice purchased from Theodor Bilharzia Research Institute, Giza, Egypt, with an average bodyweight of (18–23) g were used. Mice were housed under constant conditions of 12 h light/dark cycle in a […], with free access to standard laboratory mice food and water. All procedures related to care and maintenance of the animals were performed according to the international guiding principles for animal research and approved by the Faculty of Science, Suez Canal University bioethics and animal ethics committee (Approval number REC-07–2021).
Solid Ehrlich carcinoma (SEC) was purchased from the National Cancer Institute (Cairo University, Egypt). The tumour cell line was proliferated in mice through serial intraperitoneal (I.P.) transplantation of a volume of 0.2 ml physiological saline contains 1 × 10^6 viable cells for 24 h. SEC cells were collected 7 days after I.P. implantation. The harvested cells were diluted with saline to obtain a concentration of 5 × 10^6 viable SEC cells/mL. A volume of 0.2 ml saline contains 1 × 10^6 SEC cells that were I.P. implanted into each normal mouse. SEC cells (1 × 10^6 tumour cells/mouse) were implanted subcutaneously into the right thigh of the hind limb.
as §1
It includes tumour volume, weight, and tumour inhibition ratio (TIR%). Time interval measurements of tumour volume using digital Vernier calliper (Tricle Brand, Shanghai, China). Measure tumour length and width using a clipper and then calculate tumour volume using formulations V = (L × W × W)/2, where V is tumour volume, W is tumour width, L is tumour length. While TIR% was calculated according to the following equation Tumor volume (Control)−Tumor volume (treated)/Tumor volume (control)× 100.

Albumin [2]: 6.25 g/dL
Hb [2]: 8.2 g/dL
RBCs count [2]: 5.37 ×10^6/µL and 5.37 ± 0.37 ×10^6/µL
Total Protein [2]: 8.04 g/dL
WBCs count [2]: 3720 µL⁻¹
SMILES: CCCc1nnc2c3ccccc3c(NN=Cc3ccc([N+](=O)[O-])cc3)nn12 [Compound 9d, 6-[2–(4-Nitrobenzylidene)hydrazineyl]-3-propyl-[1,2, 4]triazolo[3,4-a]phthalazine]
IC50 ([1]; Homo sapiens, HepG2, MTT, mean ± SD of three separate experiments, read-out: In vitro Cytotoxicity IC50 HepG-2): 5.08 ± 0.17 µM
times more active than doxorubicin, HepG2 ([1]; ratio of IC50 values vs doxorubicin): 1.63 times
ALT [2]: 42.9 U/L
AST [2]: 55.6 U/L
Histopathological finding in liver tissue [3]: hepatic cells are near normal and show tissue improvement as compared with a little hydropic degeneration
tumour volume [4]: 19 mm^3
reduction of the increase in solid tumour mass ([4]; compared to SEC control): 63.4%
solid tumour mass ([4]; SEC control 194 mg): 71 mg
tumour inhibition ratio (TIR) % ([4]; from tumour volume, compared to control): 64.5%
